Experimental data as given in article PMC12627862, “Therapeutic targeting of endothelial calcium signaling accelerates the resolution of lung injury” (Signal Transduction and Targeted Therapy, 2025).
Starred links: 1 amine or outer side, 2 acyl side, 3 side chain; linkers in the order of their positions; H or OH if unused. Non-standard residues stand in square brackets, D forms with d. Residues, ends and D or L forms follow the SMILES beside them. ξ: configuration not given here. Oic = O=C(O)[C@@H]1C[C@@H]2CCCC[C@@H]2N1; GABOB(3R) = O=C(C[C@@H](O)CN[*:1])[*:2]; tBuAla = CC(C)(C)C[C@H](N)C(=O)O; ξVal(3-OH) = CC(C)(O)C(N)C(=O)O; 4Amb = NCc1ccc(C(=O)O)cc1

Legend:
[1] = Pharmacokinetic studies in rats
Description: Blood samples were collected at predefined time points (2, 10, 30, 60, 90 minutes, and 2, 4, 6, 8, and 24 hours post-dosing) from subgroups of rats, ensuring each animal contributed a limited number of samples to minimize stress. Plasma was separated by centrifugation and stored at -80 °C until analysis. Lungs were collected at selected time points (0.5, 2, 8, and 24 hours) for drug quantification. […] Pharmacokinetic parameters, including Cmax, Tmax, AUC, half-life, clearance, and volume of distribution, were calculated using Phoenix WinNonlin software.

[2] = in vitro; conditions: human, plasma
Description: Stability assay of peptides in blood plasma of rodents, dogs, and humans. For the plasma stability assay, 5 μM of each peptide was incubated with species-specific plasma for 120 minutes and samples were taken at the required time points. Positive control used were molecules with known stability: enalapril, propantheline, and warfarin. The amount of test compound remaining at each time point was analyzed by LC-MS/MS. Appropriate control compounds for each species were also incubated.

[3] = tested on: CD1 mice, cecal ligation and puncture; test: Polymicrobial sepsis model (CLP); format: in vivo, mouse
[4] = tested on: Crl:CD (SD) rats; test: Non-GLP dose-escalation (MTD) study in rats; format: in vivo, rat; set-up: key to Clinical Signs / Body Weights / Clinical Chemistry / Hematology / Coagulation: NE = no effect; DA = decreased activity; LB = labored breathing; P = piloerection; HP = hunched posture; conditions: for ALT / APTT / AST / Albumin / Alkaline Phosphatase / Blood Urea Nitrogen / Calcium / Chloride / Cholesterol / Creatinine / Fibrinogen / Globulin / Glucose / Phosphorus / Potassium / Prothrombin Time / Sodium / Total Bilirubin / Total Protein: male rats, day 2, mean, N=3; for Body Weights / Clinical Chemistry / Clinical Signs / Coagulation / Hematology: rats, n=3
[5] = Non-GLP dose-escalation (MTD) study in rats; format: in vivo, rat; set-up: key to Clinical Signs / Body Weights / Clinical Chemistry / Hematology / Coagulation: NE = no effect; DA = decreased activity; LB = labored breathing; P = piloerection; HP = hunched posture; conditions: rat, in vivo; male Crl:CD (SD) rats, single IV bolus; read-out: no observed adverse effect level (NOAEL)
[6] = tested on: splenocytes from CD1 mice; test: Cytokine release by immune cells in vitro; format: cell-based, mouse; conditions: 2 µg/mL LPS for 2 hours, VT-109 200 nM and 1 µM
Description: VT-109’s effect on cytokine release by immune cells in vitro. Freshly isolated splenocytes from CD1 mice were treated with 2 µg/mL LPS for 2 hours. Two different concentrations of VT-109 (200 nM and 1 µM) were tested, and the cells were treated concurrently with LPS. Untreated splenocytes served as the control. After the 2-hour incubation, MCP-1, TNF-α, KC, and IL-6 levels were measured in the growth media using mouse multiplexed ELISA array. Data are expressed as pg/mL.

[7] = male, Crl:CD (SD), rat, in vivo, iv, 5 mg/kg
[8] = rat lungs, single IV 5 mg/kg, Phoenix WinNonlin
[9] = rat plasma, single IV 5 mg/kg, Phoenix WinNonlin
[10] = 24 hours after CLP, 18-gauge, n = 3
[11] = 24 hours after CLP, 2 µmol/kg bw i.v. 5 hours post-surgery, n = 5
[12] = BAL 24 hours after CLP, treatment at 5 hours post-surgery, Mean±Std, n = 8–10
[13] = CLP, VT-109 monotherapy 2 µmol/kg bw i.v.
[14] = PF (peritoneal fluid), head says BAL, CLP, Mean±Std

CC(C)(C)C[C@@H]1NC(=O)C[C@@H](O)CNC(=O)[C@@H]2C[C@@H]3CCCC[C@@H]3N2C(=O)[C@H](CC(C)(C)C)NC(=O)c2ccc(cc2)CNC(=O)C(C(C)(C)O)NC(=O)[C@@H](Cc2ccccc2)NC1=O (stereo partly drawn) [compound 109, (1^2S,1^3aS,1^7aS,3S,10S,13R,16S,20R)-13-benzyl-20-hydroxy-10-(2-hydroxypropan-2-yl)-3,16-dineopentyl-1^2,1^3,1^3a,1^4,1^5,1^6,1^7,1^7a-octahydro-1^1H-4,8,11,14,17,22-hexaaza-1(1,2)-indola-6(1,4)-benzenacyclotricosaphane-2,5,9,12,15,18,23-heptaone.] (cyclo([4Amb][tBuAla][Oic][GABOB(3R)][tBuAla][dF][ξVal(3-OH)]))
AUC(0-t) [1, 7]: 12400 ng·h/mL
C0 [1, 7]: 46300 ng/mL
Tmax [1, 7]: 1.98 min
Vd [1, 7]: 3.1 L/kg
clearance [1, 7]: 6.72 mL/min/kg
half-life [1, 7]: 5.33 h
AUC (0-last) [1, 8]: 27219 ng·h/g
Cmax [1, 8]: 3606 ng/g
Lambda_z [1, 8]: 0.1535 h⁻¹
half-life [1, 8]: 4.52 h
persistence of substantial amounts in the lung post dose ([1]; rat lungs, single intravenous injection): at least 24 hours
Cmax [1, 9]: 40548 ng/mL
Lambda_z [1, 9]: 0.1299 h⁻¹
time of peak plasma concentrations (Cmax) after dosing ([1]; rat plasma, single intravenous injection): ≤ 2 min
half-life at 5 μM [2]: > 8 h
remaining at 2 h, 5 μM [2]: 101%
bacterial counts in the blood or peritoneal fluid ([3]; 24 hours after CLP): did not affect
phosphorylation of FOXM1 at Ser715 [3, 10]: increased phosphorylation
sepsis-induced changes of FOXM1, FOXO1, E2F3, β-catenin and p21 in lung tissue (Western blot) [3, 10]: reversed these changes
VE-cadherin and occludin expression ([3]; 24 hours after CLP, 18-gauge, to the baseline levels of sham mice): restored
alanine aminotransferase (ALT), blood [3, 11]: reduced levels
blood urea nitrogen (BUN) [3, 11]: reduced levels
bacterial colony counts in bronchoalveolar lavage fluid (BALF) ([3]; 24 hours after CLP, VT-109 monotherapy versus vehicle): markedly reduced
BAL Cytokine mGM-CSF [3, 12]: 1.21 ± 0.70 pg/mL
BAL Cytokine mIFNγ [3, 12]: 0.49 ± 0.34 pg/mL
BAL Cytokine mIL-1a [3, 12]: 0.14 ± 0.00 pg/mL
BAL Cytokine mIL-1b [3, 12]: 1.59 ± 1.01 pg/mL
BAL Cytokine mIL-4 [3, 12]: 2.79 ± 1.03 pg/mL
BAL Cytokine mIL-6 [3, 12]: 282.12 ± 522.24 pg/mL
BAL Cytokine mIL-10 [3, 12]: 2.19 ± 2.95 pg/mL
BAL Cytokine mIL-12 [3, 12]: 16.99 ± 7.90 pg/mL
BAL Cytokine mIL-17 [3, 12]: 0.14 ± 0.00 pg/mL
BAL Cytokine mKC [3, 12]: 609.75 ± 878.78 pg/mL
BAL Cytokine mMCP-1 [3, 12]: 19.17 ± 28.01 pg/mL
BAL Cytokine mMIP-1α [3, 12]: 1.16 ± 1.31 pg/mL
BAL Cytokine mRANTES [3, 12]: 2.55 ± 5.23 pg/mL
survival rate ([3]; CLP 18-gauge, VT-109 monotherapy 2 µmol/kg bw i.v., initiated 5 hours post-surgery): significantly improved the survival rate
survival ([3]; CLP 18-gauge, monotherapy: VT-109 0.5 µmol/kg bw or enrofloxacin 5 mg/kg bw): neither antibiotics nor VT-109 monotherapy (0.5 µmol/kg bw) significantly improved survival
acute lung injury (H&E, ALI score) [3, 13]: prevented the development of acute lung injury
neutrophil recruitment into lung tissue (Ly6G) [3, 13]: markedly suppressed
Cytokine mGM-CSF [3, 14]: 15.75 ± 20.22 pg/mL
Cytokine mIFNγ [3, 14]: 4.39 ± 3.00 pg/mL
Cytokine mIL-1a [3, 14]: 104.93 ± 94.65 pg/mL
Cytokine mIL-1b [3, 14]: 229.14 ± 237.82 pg/mL
Cytokine mIL-3 [3, 14]: 0.28 ± 0.00 pg/mL
Cytokine mIL-4 [3, 14]: 6.90 ± 0.83 pg/mL
Cytokine mIL-5 [3, 14]: 5.06 ± 2.77 pg/mL
Cytokine mIL-6 [3, 14]: 46833 ± 65942 pg/mL
Cytokine mIL-10 [3, 14]: 432.67 ± 490.14 pg/mL
Cytokine mIL-12 [3, 14]: 57.48 ± 43.37 pg/mL
Cytokine mIL-17 [3, 14]: 7.20 ± 5.26 pg/mL
Cytokine mKC [3, 14]: 24611 ± 34486 pg/mL
Cytokine mMCP-1 [3, 14]: 16338 ± 17531 pg/mL
Cytokine mMIP-1α [3, 14]: 5136 ± 8056 pg/mL
Cytokine mRANTES [3, 14]: 382.32 ± 397.78 pg/mL
Cytokine mTNFα [3, 14]: 29.39 ± 31.64 pg/mL
MTD, equivalent in humans ([4]; human equivalent): ~ 2.43 mg/kg
LOAEL, HED ([4]; human equivalent dose): ~ 1.62 mg/kg
NOAEL, HED ([4]; human equivalent dose): ~ 0.81 mg/kg
lowest observed adverse effect level (LOAEL) ([4]; male Crl:CD (SD) rats, single IV bolus): 10 mg/kg
ALT ([4]; 5 mg/kg): 52.7 U/L
APTT ([4]; 5 mg/kg): 17.933 d¹ Seconds
AST ([4]; 5 mg/kg): 71.3 U/L
Albumin ([4]; 5 mg/kg): 3.0400 g/dL
Alkaline Phosphatase ([4]; 5 mg/kg): 381.7 U/L
Blood Urea Nitrogen ([4]; 5 mg/kg): 13.0 mg/dL
Calcium ([4]; 5 mg/kg): 11.320 mg/dL
Chloride ([4]; 5 mg/kg): 98.3 mmol/L
Cholesterol ([4]; 5 mg/kg): 86.0 5.6 3 mg/dL
Creatinine ([4]; 5 mg/kg): 0.3139 mg/dL
Fibrinogen ([4]; 5 mg/kg): 403.0 mg/dL
Globulin ([4]; 5 mg/kg): 2.239 g/dL
Glucose ([4]; 5 mg/kg): 161.3 mg/dL
Phosphorus ([4]; 5 mg/kg): 9.10 0.44 3 mg/dL
Potassium ([4]; 5 mg/kg): 5.93 d² mmol/L
Prothrombin Time ([4]; 5 mg/kg): 11.77 s
Sodium ([4]; 5 mg/kg): 141.3 mmol/L
Total Bilirubin ([4]; 5 mg/kg): 0.127 mg/dL
Total Protein ([4]; 5 mg/kg): 5.279 g/dL
ALT ([4]; 10 mg/kg): 52.0 U/L
APTT ([4]; 10 mg/kg): 17.800 d¹ Seconds
AST ([4]; 10 mg/kg): 68.3 U/L
Albumin ([4]; 10 mg/kg): 3.2720 0.1274 3 g/dL
Alkaline Phosphatase ([4]; 10 mg/kg): 323.0 U/L
Blood Urea Nitrogen ([4]; 10 mg/kg): 18.7 mg/dL
Calcium ([4]; 10 mg/kg): 11.767 mg/dL
Chloride ([4]; 10 mg/kg): 99.0 mmol/L
Cholesterol ([4]; 10 mg/kg): 88.7 2.3 3 mg/dL
Creatinine ([4]; 10 mg/kg): 0.318 mg/dL
Fibrinogen ([4]; 10 mg/kg): 453.3 mg/dL
Globulin ([4]; 10 mg/kg): 2.523 0.078 3 g/dL
Glucose ([4]; 10 mg/kg): 126.7 10.5 3 mg/dL
Phosphorus ([4]; 10 mg/kg): 9.67 0.45 3 mg/dL
Potassium ([4]; 10 mg/kg): 5.77 mmol/L
Prothrombin Time ([4]; 10 mg/kg): 12.27 d¹ Seconds
Sodium ([4]; 10 mg/kg): 144.0 mmol/L
Total Bilirubin ([4]; 10 mg/kg): 0.127 mg/dL
Total Protein ([4]; 10 mg/kg): 5.795 0.203 3 g/dL
ALT ([4]; 15 mg/kg): 52.7 U/L
APTT ([4]; 15 mg/kg): 16.867 s
AST ([4]; 15 mg/kg): 69.7 U/L
Albumin ([4]; 15 mg/kg): 3.1030 d² 0.0465 3 g/dL
Alkaline Phosphatase ([4]; 15 mg/kg): 286.0 U/L
Blood Urea Nitrogen ([4]; 15 mg/kg): 15.7 d² mg/dL
Calcium ([4]; 15 mg/kg): 11.590 mg/dL
Chloride ([4]; 15 mg/kg): 97.0 d² mmol/L
Cholesterol ([4]; 15 mg/kg): 91.0 6.1 3 mg/dL
Creatinine ([4]; 15 mg/kg): 0.352 mg/dL
Fibrinogen ([4]; 15 mg/kg): 438.3 mg/dL
Globulin ([4]; 15 mg/kg): 2.488 0.021 3 g/dL
Glucose ([4]; 15 mg/kg): 142.3 d² 1.2 3 mg/dL
Phosphorus ([4]; 15 mg/kg): 9.00 0.26 3 mg/dL
Potassium ([4]; 15 mg/kg): 5.47 mmol/L
Prothrombin Time ([4]; 15 mg/kg): 11.67 s
Sodium ([4]; 15 mg/kg): 142.0 mmol/L
Total Bilirubin ([4]; 15 mg/kg): 0.140 mg/dL
Total Protein ([4]; 15 mg/kg): 5.591 d² 0.067 3 g/dL
Body Weights ([4]; single IV bolus 5 mg/kg): NE
Clinical Chemistry ([4]; single IV bolus 5 mg/kg): NE
Clinical Signs ([4]; single IV bolus 5 mg/kg): DA
Coagulation ([4]; single IV bolus 5 mg/kg): NE
Hematology ([4]; single IV bolus 5 mg/kg): NE
Body Weights ([4]; single IV bolus 10 mg/kg): NE
Clinical Chemistry ([4]; single IV bolus 10 mg/kg): ↑BUN
Clinical Signs ([4]; single IV bolus 10 mg/kg): DA, LB
Coagulation ([4]; single IV bolus 10 mg/kg): NE
Hematology ([4]; single IV bolus 10 mg/kg): ↓%Reticulocytes
Body Weights ([4]; single IV bolus 15 mg/kg): NE
Clinical Chemistry ([4]; single IV bolus 15 mg/kg): ↑BUN ↑Creatinine
Clinical Signs ([4]; single IV bolus 15 mg/kg): DA, LB, P, HP
Coagulation ([4]; single IV bolus 15 mg/kg): NE
Hematology ([4]; single IV bolus 15 mg/kg): ↓Platelet Count ↓%Reticulocytes ↑Mean Platelet Volume
lung gross histopathology ([4]; single IV bolus 15 mg/kg): intra-alveolar hemorrhage and pigment deposition
NOAEL at 72 h [5]: 5 mg/kg
cytokine production by immune cells in vitro (MCP-1, TNFα, KC, IL-6) [6]: nor did it directly alter cytokine production
